In data set [1] the target is T1, Mineralocorticoid receptor (Homo sapiens, UniProt P08235).
T1 sequence (P08235 whole entry): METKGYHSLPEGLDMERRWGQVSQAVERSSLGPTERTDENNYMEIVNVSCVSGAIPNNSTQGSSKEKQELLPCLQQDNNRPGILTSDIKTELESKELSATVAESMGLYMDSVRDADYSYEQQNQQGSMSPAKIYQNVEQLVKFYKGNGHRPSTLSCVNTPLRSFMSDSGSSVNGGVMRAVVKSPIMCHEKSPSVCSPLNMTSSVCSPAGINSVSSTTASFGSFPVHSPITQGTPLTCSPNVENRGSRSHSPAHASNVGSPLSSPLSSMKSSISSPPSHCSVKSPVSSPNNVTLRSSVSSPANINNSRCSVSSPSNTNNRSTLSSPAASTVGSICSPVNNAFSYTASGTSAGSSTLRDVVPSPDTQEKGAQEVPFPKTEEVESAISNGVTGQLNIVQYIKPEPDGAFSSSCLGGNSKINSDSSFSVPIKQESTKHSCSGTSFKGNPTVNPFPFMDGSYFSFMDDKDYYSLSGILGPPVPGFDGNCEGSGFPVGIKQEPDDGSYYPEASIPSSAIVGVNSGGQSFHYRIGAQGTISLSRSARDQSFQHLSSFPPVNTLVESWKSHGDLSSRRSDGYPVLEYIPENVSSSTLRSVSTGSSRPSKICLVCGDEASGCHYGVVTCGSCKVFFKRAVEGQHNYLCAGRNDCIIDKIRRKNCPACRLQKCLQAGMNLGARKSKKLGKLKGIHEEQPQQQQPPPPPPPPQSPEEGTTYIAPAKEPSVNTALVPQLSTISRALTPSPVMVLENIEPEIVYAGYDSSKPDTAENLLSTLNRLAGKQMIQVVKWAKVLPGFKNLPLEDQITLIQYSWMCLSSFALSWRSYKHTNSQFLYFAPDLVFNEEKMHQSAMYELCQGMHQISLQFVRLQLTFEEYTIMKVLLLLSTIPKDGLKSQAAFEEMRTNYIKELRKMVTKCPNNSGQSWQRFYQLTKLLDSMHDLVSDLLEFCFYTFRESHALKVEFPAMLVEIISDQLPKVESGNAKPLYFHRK
Nature of the data set: Antagonist activity at mineralocorticoid receptor (unknown origin).

The next data set addresses T2, Glucocorticoid receptor (Homo sapiens, UniProt P04150).
T2 sequence (P04150 whole entry): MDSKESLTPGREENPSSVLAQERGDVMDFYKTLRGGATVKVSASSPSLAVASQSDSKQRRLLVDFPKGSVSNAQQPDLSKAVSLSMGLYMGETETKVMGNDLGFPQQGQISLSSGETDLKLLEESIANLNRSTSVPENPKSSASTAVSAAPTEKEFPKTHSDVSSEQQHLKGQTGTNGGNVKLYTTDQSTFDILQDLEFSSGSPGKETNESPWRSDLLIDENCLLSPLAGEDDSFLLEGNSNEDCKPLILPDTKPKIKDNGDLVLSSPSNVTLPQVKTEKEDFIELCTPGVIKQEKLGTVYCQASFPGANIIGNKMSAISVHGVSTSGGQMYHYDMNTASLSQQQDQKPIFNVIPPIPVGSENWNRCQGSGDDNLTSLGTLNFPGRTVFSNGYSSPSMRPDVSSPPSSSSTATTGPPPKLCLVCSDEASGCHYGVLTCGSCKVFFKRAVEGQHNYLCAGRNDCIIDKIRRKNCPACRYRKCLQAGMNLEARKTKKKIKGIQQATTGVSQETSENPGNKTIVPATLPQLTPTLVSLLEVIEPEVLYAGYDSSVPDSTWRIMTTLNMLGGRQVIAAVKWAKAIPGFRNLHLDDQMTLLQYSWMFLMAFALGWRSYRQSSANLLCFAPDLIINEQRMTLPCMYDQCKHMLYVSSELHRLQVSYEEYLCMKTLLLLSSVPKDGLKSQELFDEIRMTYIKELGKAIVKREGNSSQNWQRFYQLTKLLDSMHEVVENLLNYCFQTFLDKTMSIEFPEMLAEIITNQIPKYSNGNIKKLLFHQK
As to the kind of experiment: Binding affinity to glucocorticoid receptor (unknown origin) by gel filtration assay. For orientation: SEC sorts molecules by how far they enter the pores of the column.

The nature of data set [2]: Oral bioavailability in Sprague-Dawley rat at 10 mg/kg. It counts as ADME, organism-based. The following applies: in vivo.
A short description of data set [3]: Half-life in Sprague-Dawley rat at 2 mg/kg, iv or 10 mg/kg, po. It counts as ADME, organism-based. The following applies: in vivo.
A short description of data set [4]: Clearance in Sprague-Dawley rat at 2 mg/kg, iv or 10 mg/kg, po. It counts as ADME, organism-based. Particulars: in vivo.
The species named for another data set is Homo sapiens. Nature of the data set: Selectivity ratio of IC50 for glucocorticoid receptor (unknown origin) to IC50 for mineralocorticoid receptor (unknown origin).
A short description of data set [5]: Oral bioavailability in Wistar Han rat at 2 mg/kg. Particulars: in vivo. Format: ADME, organism-based.
The nature of data set [6]: Half-life in Wistar Han rat at 1 mg/kg, iv or 2 mg/kg, po. The following applies: in vivo; for half-life: Wistar Han. Format: ADME, organism-based.
Data set [7] is described as follows: Metabolic stability in human liver microsomes assessed as parent compound remaining measured at 0.5 hrs. Particulars: read-out: Stability. It counts as ADME, Microsome. (In general: Liver microsomes are vesicles of endoplasmic reticulum, rich in cytochrome P450 enzymes.)
The nature of data set [8]: Half-life in Wistar Han rat at 2 mg/kg, iv or 10 mg/kg, po. The following applies: in vivo. Format: ADME, organism-based.
Data set [9] in a line: Clearance in Wistar Han rat at 2 mg/kg, iv or 10 mg/kg, po. Particulars: in vivo. It counts as ADME, organism-based.
Data set [10] in a line: Oral bioavailability in Wistar Han rat at 10 mg/kg. Particulars: in vivo. Format: ADME, organism-based.
For data set [11], the target named is T1, Mineralocorticoid receptor. Nature of the data set: Binding affinity to mineralocorticoid receptor (unknown origin).
Data set [12] is described as follows: Oral bioavailability in Sprague-Dawley rat at 2 mg/kg. Format: ADME, organism-based. The following applies: in vivo.
Data set [13] can be described thus: Half-life in Sprague-Dawley rat at 1 mg/kg, iv or 2 mg/kg, po. Format: ADME, organism-based. Particulars: in vivo.
Data set [14] in a line: Clearance in Wistar Han rat at 1 mg/kg, iv or 2 mg/kg, po. Particulars: in vivo. Format: ADME, organism-based.
Data set [15] is described as follows: Clearance in Sprague-Dawley rat at 1 mg/kg, iv or 2 mg/kg, po. Particulars: in vivo. It counts as ADME, organism-based.
The nature of data set [16]: Drug metabolism in human liver microsomes assessed as oxidation of electron-rich indole core at 10 uM preincubated for 1 hr followed by NADPH addition by HRMS/MS fragmentation analysis. It counts as ADME, Microsome.
A short description of data set [17]: Photostability of the compound under UV-irradiation. It counts as physicochemical.
A short description of data set [18]: Drug metabolism in rat liver microsomes assessed as oxidation of electron-rich indole core at 10 uM preincubated for 1 hr followed by NADPH addition by HRMS/MS fragmentation analysis. Format: ADME, Microsome.

By IC50 is commonly meant the concentration that inhibits the measured activity by half. A high value points to weaker potency. One may read the bioavailability as dose-corrected exposure relative to a reference, in per cent. Low readings indicate little systemic uptake, high ones much systemic uptake. By half-life is commonly meant the time needed for the level to fall by half in the phase considered. Higher therefore signals slow loss.

On to `CCC(CO)(c1ccc(Cl)cc1)n1ccc2c(NS(C)(=O)=O)cc(C#N)cc21` (racemic), for which the IC50 was found to be 22000 nM in [1] and 1050 nM on Glucocorticoid receptor.

Molecule `CCC(CC)(c1ccc(Cl)cc1)n1ncc2c(NS(C)(=O)=O)cccc21` yielded an IC50 in data set [1] of 114 nM.

`CCC(CC)(c1ccc(Cl)cc1)c1nnc2c(NS(C)(=O)=O)cccn12`: it took 5940 nM to reach half-maximal inhibition in data set [1] (IC50).

With `CC[C@](CO)(c1ccc(Cl)cc1)n1ncc2c(NS(C)(=O)=O)cccc21`, the values for the IC50 (in [1]; at Glucocorticoid receptor) were 64 nM and 870 nM, respectively. The same molecule gave a bioavailability in data set [2] of 59%. The molecule further gave a half-life in data set [3] of 1.9 h. Also, the clearance in data set [4] is 27 mL/min/kg. The Ratio IC50 in the data set listed under Homo sapiens worked out at 29.

With `CC[C@@](c1ccc(C(F)(F)F)cc1)(C(C)O)n1ncc2c(NS(C)(=O)=O)cc(F)cc21` (single isomer, unassigned; diastereomer B) [listing 1 of 2 here], the F in [5] is listed as 92%. In addition, the half-maximal inhibitory concentration (IC50) in data set [1] is 41 nM; at Glucocorticoid receptor, 4020 nM. The molecule further had a t1/2 in [6] of 5.2 h. Also, the remaining at 0.5 h in data set [7] stood at 84%.

As to `CC[C@](CO)(c1ccc(Cl)cc1)n1ccc2c(NS(C)(=O)=O)cc(F)cc21`, the values for the IC50 (in data set [1]; at Glucocorticoid receptor; in data set [11]) were 116 nM, 111 nM and 32 nM, respectively. Moreover, in data set [8], the half-life was 1.6 h. This molecule also gave a clearance in data set [9] of 34 mL/min/kg. This molecule displayed a bioavailability in [10] of 30%. For the same molecule, in the data set filed under Homo sapiens, the Ratio IC50 came out at 3.5.

`CC[C@@](c1ccc(C(F)(F)F)cc1)(C(C)O)n1ncc2c(NS(C)(=O)=O)cc(F)cc21` (single isomer, unassigned; diastereomer A) [listing 1 of 2 here] registered a F in [5] of 36%. For the same molecule, the results for the IC50 (in [1]; at Glucocorticoid receptor) were 22 nM and 10200 nM, respectively. Besides, the t1/2 in [6] came out at 1.8 h.

`CC[C@@](c1ccc(C(F)(F)F)cc1)(C(C)O)n1ncc2c(NS(C)(=O)=O)cc(F)cc21` (single isomer, unassigned; diastereomer B) [listing 2 of 2 here]: the Ratio IC50 in the data set listed under Homo sapiens was 19.

`CC[C@@](c1ccc(C(F)(F)F)cc1)(C(C)O)n1ncc2c(NS(C)(=O)=O)cccc21` (some centres not stated): the bioavailability in [5] (Wistar Han) and in data set [12] was 92% throughout. The figures for the 50% inhibitory concentration (IC50) (in data set [1]; at Glucocorticoid receptor) were 20 nM and 1640 nM, respectively. Moreover, the half-life in data set [6] and in [13] was 5.7 h each time. Further, in data set [7], the remaining at 0.5 h is 52%. For the same molecule, the Ratio IC50 in the data set listed under Homo sapiens amounted to 1000. The clearance in data set [14] and in [15] was 14 mL/min/kg in each case.

In the case of `CC[C@@](c1ccc(C(F)(F)F)cc1)(C(C)O)n1ncc2c(NS(C)(=O)=O)cc(F)cc21` (single isomer, unassigned; diastereomer A) [listing 2 of 2 here], the Ratio IC50 in the data set filed under Homo sapiens worked out at 640.

Turning to `CCC(CC)(c1ccc(Cl)cc1)n1ccc2c(NS(C)(=O)=O)cccc21`, the IC50 in data set [1] stood at 39 nM.

For the molecule `CC[C@](C(=O)NC)(c1ccc(Cl)cc1)n1ccc2c(NS(C)(=O)=O)cccc21`, the Drug metabolism entry in [16] and in [18] was “Metabolite_Detected” throughout. Further, in data set [17], the Stability result is on record as “Unstable”.

As for `CCC(CO)(c1ccc(Cl)cc1)n1ccc2c(NS(C)(=O)=O)cc(Br)cc21` (racemic), the IC50 in data set [1] was determined as 567 nM; on Glucocorticoid receptor, 202 nM.

As to `CCC(CC)(c1ccc(Cl)cc1)c1cnc2c(NS(C)(=O)=O)cccn12`, the IC50 in [1] was 7690 nM.

In data set [6], `CC[C@](CO)(c1ccc(Cl)cc1)n1ccc2c(NS(C)(=O)=O)cccc21` had a half-life of 1.5 h. For the same molecule, the clearance in data set [14] came to 41 mL/min/kg.

The record behind these values is ChEMBL document CHEMBL4340566, “Development of indazole mineralocorticoid receptor antagonists and investigation into their selective late-stage functionalization” (Bioorg Med Chem Lett, 2019).
